The values below come from ChEMBL document CHEMBL6083259, “Discovery of quinazoline-benzothiazole derivatives as novel potent protease-activated receptor 4 antagonists with improved pharmacokinetics and low bleeding liability” (Eur J Med Chem, 2024).

System in one series: not listed separately
The series is described as follows: Toxicity in male C57BL/6 mouse assessed as prolongation of bleeding time at 10 mg/kg, po measured after 1.5 hrs by tail bleeding assay. It is filed as organism-based. To be noted: in vivo.
On to `COC(=O)[C@H](c1ccccc1Cl)N1CCc2sccc2C1` [CLOPIDOGREL], for which the Activity entry was “Toxic”.

A further series has as its target T1, Proteinase-activated receptor 4 (Homo sapiens) (UniProt Q96RI0).
T1 sequence (whole entry): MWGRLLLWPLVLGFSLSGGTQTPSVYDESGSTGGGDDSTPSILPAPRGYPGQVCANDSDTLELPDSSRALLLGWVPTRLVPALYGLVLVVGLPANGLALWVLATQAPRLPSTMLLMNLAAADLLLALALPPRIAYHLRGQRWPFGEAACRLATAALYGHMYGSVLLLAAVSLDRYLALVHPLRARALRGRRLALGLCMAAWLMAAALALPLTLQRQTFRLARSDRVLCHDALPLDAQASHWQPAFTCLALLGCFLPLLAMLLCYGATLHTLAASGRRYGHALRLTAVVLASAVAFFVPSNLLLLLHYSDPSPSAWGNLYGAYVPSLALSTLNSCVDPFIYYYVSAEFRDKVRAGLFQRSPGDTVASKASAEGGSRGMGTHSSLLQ
Briefly: Antagonist activity at PAR4 in human platelet rich plasma assessed as inhibition of gamma-PAR4 agonist peptide (AYPGKF-NH2)-induced platelet aggregation at 200 nM preincubated for 5 mins followed by peptide addition and measured after 5 mins by aggregometer relative to control. It is filed as cell-based. To be noted: filed as antagonist, time 10.0 min.
For `COCOc1ncc2c(-c3nc4cc(F)c(OC)cc4s3)cc(C)cc2n1`, the inhibition was 86.5%.

`CCOc1ncc2c(-c3nc4cc(F)c(OC)cc4s3)cc(C)cc2n1`: the inhibition turned out to be 40.4%.

For `COc1ncc2cc(C)cc(-c3nc4cc(F)c(OC)cc4s3)c2n1`, the inhibition was determined as 90.2%.

As for `COc1ccc2nc(-c3cc(C)cc4nc(SC)ncc34)sc2c1`, the inhibition was 62.3%.

`COc1ccc2nc(-c3cc(C)cc4cnc(OC)nc34)sc2c1`: the inhibition is 79.8%.

For `CNc1ncc2c(-c3nc4c(Cl)cc(OC)cc4s3)cc(C)cc2n1`, the inhibition worked out at 58.7%.

`COc1cc2sc(-c3cc(C)cc4nc(SC)ncc34)nc2cc1F`: the inhibition came to 74.8%.

Consider `COc1cc(Cl)c2nc(-c3cc(C)cc4cnc(C)nc34)sc2c1`, for which the inhibition stood at 85.7%.

`COc1ncc2c(-c3nc4cc(F)c5c(c4s3)C[C@H](COC(=O)Nc3ccc(C)cc3)O5)cc(C)cc2n1`: the inhibition came out at 79.6%.

In the case of `COc1ncc2c(-c3nc4cc(F)c5c(c4s3)C[C@@H](COC(=O)N3CCOCC3)O5)cc(C)cc2n1`, the inhibition was determined as 47.6%.

As for `COc1cc(Cl)c2nc(-c3cc(C)cc4cncnc34)sc2c1`, the inhibition stood at 82.3%.

Take `COc1ncc2c(-c3nc4cc(F)c5c(c4s3)C[C@@H](COC(=O)Nc3ccc(C(=O)N4CCOCC4)cc3)O5)cc(C)cc2n1`: the inhibition turned out to be 61.2%.

Consider `COc1cc(Cl)c2nc(-c3cc(C)cc4cnc(OC)nc34)sc2c1`, for which the inhibition was determined as 86.4%.

Consider `COc1cc(F)c2nc(-c3cc(C)cc4nc(OC)ncc34)sc2c1`, for which the inhibition amounted to 78.8%.

Consider `COc1cc(Cl)c2nc(-c3cc(C)cc4cnc(N(C)C)nc34)sc2c1`, for which the inhibition stood at 47.6%.

Take `COc1ncc2c(-c3nc4cc(F)c(OCCO)cc4s3)cc(C)cc2n1`: the inhibition turned out to be 84.1%.

For `COc1cc(C)c2nc(-c3cc(C)cc4nc(OC)ncc34)sc2c1`, the inhibition was determined as 70.2%.

Regarding `COc1cc(Cl)c2nc(-c3cc(C)cc4nc(OC)ncc34)sc2c1`, the inhibition was found to be 85.2%.

For `COc1cc(OC)c2nc(-c3cc(C)cc4nc(OC)ncc34)sc2c1`, the inhibition was 47.8%.

In the case of `COc1cc(Cl)c2nc(-c3cc(C)cc4cnc(OC(F)F)nc34)sc2c1`, the inhibition turned out to be 74.5%.

`COCc1ncc2c(-c3nc4cc(F)c(OCCOC(=O)Nc5cccc(C#N)c5)cc4s3)cc(C)cc2n1`: the inhibition is 77.1%.

Consider `COCOc1ncc2c(-c3nc4c(Cl)cc(OC)cc4s3)cc(C)cc2n1`, for which the inhibition came out at 83.8%.

With `COc1ccc2nc(-c3cc(C)cc4nc(OC(C)C)ncc34)sc2c1`, the inhibition worked out at 42.9%.

As to `COc1cc(F)c2nc(-c3cc(C)cc4cnc(OC)nc34)sc2c1`, the inhibition was 89.6%.

On to `COc1cc(Cl)c2nc(-c3cc(C)cc4cnc(N5CCOCC5)nc34)sc2c1`, for which the inhibition is 52.3%.

Consider `COc1cc(Cl)c2nc(-c3cc(C)cc4cnc(SC)nc34)sc2c1`, for which the inhibition was determined as 69.2%.

On to `COc1ccc(NC(=O)OC[C@H]2Cc3c(c(F)cc4nc(-c5cc(C)cc6nc(OC)ncc56)sc34)O2)cc1`, for which the inhibition is 70.5%.

As for `COc1ncc2c(-c3nc4ccccc4s3)cc(C)cc2n1`, the inhibition stood at 49.6%.

With `COc1ncc2c(-c3nc4cc(F)c(OC)cc4s3)cc(C)cc2n1`, the inhibition stood at 88.3%.

For the compound `CNc1ncc2cc(C)cc(-c3nc4c(Cl)cc(OC)cc4s3)c2n1`, the inhibition is 58.1%.

Regarding `COc1ncc2cc(C)cc(-c3nc4c(C)cc5c(c4s3)OCCO5)c2n1`, the inhibition amounted to 65.3%.

With `COc1ccc2nc(-c3cc(C)cc4nc(OC)ncc34)sc2c1`, the inhibition turned out to be 77.4%.

Regarding `COc1cc(Cl)c2nc(-c3cc(C)cc4nc(SC)ncc34)sc2c1`, the inhibition was 68.2%.

For the compound `COCOc1ncc2c(-c3nc4c(F)cc(OC)cc4s3)cc(C)cc2n1`, the inhibition stood at 77.4%.

Turning to `COc1ncc2c(-c3nc4cc(F)c5c(c4s3)C[C@@H](COC(=O)Nc3cc(F)cc(C#N)c3)O5)cc(C)cc2n1`, the inhibition stood at 65.8%.

On to `COc1ncc2c(-c3nc4cc(F)c5c(c4s3)C[C@H](COC(=O)Nc3ccc(OC)c(F)c3)O5)cc(C)cc2n1`, for which the inhibition turned out to be 59.6%.

In the case of `CCOc1ncc2c(-c3nc4c(Cl)cc(OC)cc4s3)cc(C)cc2n1`, the inhibition amounted to 43.4%.

`COCOc1ncc2c(-c3nc4ccc(OC)cc4s3)cc(C)cc2n1`: the inhibition was found to be 73.9%.

Take `COc1ccc(NC(=O)OC[C@H]2Cc3c(c(F)cc4nc(-c5cc(C)cc6nc(OC)ncc56)sc34)O2)c(C)c1`: the inhibition was 55.3%.

As for `COc1ncc2c(-c3nc4cc(F)c5c(c4s3)C[C@H](COC(=O)Nc3ccc(C)cc3F)O5)cc(C)cc2n1`, the inhibition was 82.7%.

`COCc1ncc2c(-c3nc4cc(F)c(OCCOC(=O)Nc5ccc(C(=O)N6CCOCC6)cc5)cc4s3)cc(C)cc2n1`: the inhibition was 67.1%.

For `COc1ncc2c(-c3nc4cc(F)c5c(c4s3)C[C@H](COC(=O)N3CCOCC3)O5)cc(C)cc2n1`, the inhibition amounted to 64.7%.

Still in this series, the particulars now being: time 10.0 min.
For the compound `COCc1ncc2c(-c3nc4cc(F)c(OCCOC(=O)OC)cc4s3)cc(C)cc2n1`, the inhibition was 35.3%.

Turning to `CCOc1ncc2c(-c3nc4c(F)cc(OC)cc4s3)cc(C)cc2n1`, the inhibition stood at 39.1%.

Take `COc1ncc2c(-c3nc4cc(F)c5c(c4s3)C[C@H](COC(=O)Nc3ccc(C(=O)N4CCOCC4)cc3)O5)cc(C)cc2n1`: the inhibition was 38.1%.

Take `COC(=O)OC[C@H]1Cc2c(c(F)cc3nc(-c4cc(C)cc5nc(OC)ncc45)sc23)O1`: the inhibition stood at 34.9%.

Take `COc1cc(Cl)c2nc(-c3cc(C)cc4nc(OC(C)C)ncc34)sc2c1`: the inhibition came to 37.7%.

Consider `COc1ccc(NC(=O)OC[C@H]2Cc3c(c(F)cc4nc(-c5cc(C)cc6nc(OC)ncc56)sc34)O2)cn1`, for which the inhibition is 32.9%.

On to `COc1ncc2cc(C)cc(-c3nc4c(Cl)cc(Cl)cc4s3)c2n1`, for which the inhibition was 34.7%.

Regarding `COCc1ncc2c(-c3nc4cc(F)c(OCCOC(=O)N5CCOCC5)cc4s3)cc(C)cc2n1`, the inhibition came to 34.5%.

As to `COc1ncc2cc(C)cc(-c3nc4ccccc4s3)c2n1`, the inhibition was determined as 29.7%.

Consider `COc1cc(Cl)c2nc(-c3cc(C)cc4cnc(OC(C)C)nc34)sc2c1`, for which the inhibition came out at 26.3%.

On to `COc1ncc2c(-c3nc4cc(F)c5c(c4s3)C[C@H](COC(=O)Nc3cnc(C)nc3)O5)cc(C)cc2n1`, for which the inhibition turned out to be 27.5%.

Take `CCOc1ncc2cc(C)cc(-c3nc4c(Cl)cc(OC)cc4s3)c2n1`: the inhibition stood at 36.7%.

As for `COc1cc(Cl)c2nc(-c3cc(C)cc4cnc(N5CCCCC5)nc34)sc2c1`, the inhibition was 39.5%.
